The METLIN SMRT retention time set (Domingo-Almenara et al. 2019)

Assay: gradient 5% acetonitrile 3 min, to 50% in 2 min, to 85% in 15 min, held 3 min, 100 µL/min
Details: column: Zorbax Extend-C18 2.1 x 50 mm; eluents: water / acetonitrile, 0.1% formic acid
How it was run: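 In both positive and negative ionization mode, a quadrupole time-of-flight mass spectrometer coupled to HPLC analyzed pure standards run in mixtures of ~100 molecules. The Zorbax Extend-C18 column (2.1 × 50 mm, 1.8 μm) was operated at 100 μL/min with water and acetonitrile, each containing 0.1% formic acid. The dead volume was 40 μL and the dwell volume 900 μL. Retention time came from adduct peaks that were computationally picked and individually inspected by hand.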

RP-LC retention time [s] | SMILES
679 | COc1ccc(C(=O)Nc2ccc(CC(=O)N3CCOCC3)cc2)c(OC)c1OC
891 | Cc1cn2c(S(=O)(=O)N3CCC4(CC3)OCCO4)c(C(C)C)nc2s1
1020 | CCCc1ccc(S(=O)(=O)Nc2ccc3nc(S(=O)(=O)CC)sc3c2)cc1
595 | Cc1cnc(C2CN(Cc3cccc(F)c3)C2)n1Cc1ccccc1
580 | CCOC(=O)c1[nH]c(C)c(CCC(=O)N2CCC(C(=O)NCCCN3CCOCC3)CC2)c1C
506 | CN1CCCC1c1nc(C2CN(C(=O)c3ccn[nH]3)C2)no1 (centres undefined)
649 | CN1CCCN(C(=O)Nc2ccc3c(c2)OCCO3)c2ccccc21
666 | NC(=O)c1ccccc1NC(=O)CCCn1cnc(-c2ccc(F)cc2)cc1=O
574 | COc1ccc(CCNC(=O)CSc2nccn2Cc2ccco2)cc1OC
949 | Cc1nn(-c2ccc(F)cc2)c(C)c1S(=O)(=O)N1CCC(C(=O)Nc2ccccc2F)CC1
821 | Cc1ccc(-n2c(N3CCC(C(=O)NCC(C)C)CC3)nc3ccsc3c2=O)cc1
693 | COC(=O)[C@H](CCSC)NC(=O)c1ccc(-n2cnnn2)cc1
635 | CCc1nc2c(c(=O)n1CC(=O)Nc1ccc(OC)cc1)CN(Cc1ccccc1)CC2
778 | Cn1cc(-c2noc(-c3cccs3)n2)ccc1=O
630 | O=C(CCn1c(N2CCCCC2)nc2ccccc2c1=O)N1CCN(c2ccccn2)CC1
916 | CCC(C)CNCC(=O)N1CCc2sccc2C1COc1cccc(C)c1 (centres undefined)
641 | CCN(CC)c1ncc2c(n1)CCC(C(=O)Nc1ccc(N3CCOCC3)cc1)C2 (centres undefined)

RP-LC retention time [s] | SMILES
1230 | CC(C)Oc1ccc(-c2noc(Cn3c(=O)n(CCc4ccccc4)c(=O)c4sccc43)n2)cc1
915 | CC(C)NC(=O)c1ccc(OCC2CCCN(C(=O)c3ccc(F)c(Cl)c3)C2)cc1 (centres undefined)
968 | COc1ccccc1-c1noc(C2CCCN2C(=O)c2cc(F)ccc2F)n1 (centres undefined)
683 | CCOC(=O)c1cccc(NC(=O)NC2CCN(c3ccccc3)C2=O)c1 (centres undefined)
735 | CCN(CC)C(=O)c1ccc(-c2nc3cc(NS(=O)(=O)c4ccc(Cl)cc4)ccc3n2C)cc1
881 | O=C(NCCCN1CCCC1=O)c1csc(N2CCN(c3ccc(Cl)cc3)CC2)n1
690 | COc1ccc(NC(=O)N2CCC(c3noc(-c4cccnc4)n3)C2)cc1 (centres undefined)
693 | CC1=CC(=O)CC(C)(C)C1(O)/C=C/C(C)=C/C(=O)O (centres undefined)
593 | Cc1nc(C2CCCCN2C(=O)c2ccco2)n[nH]1 (centres undefined)
1020 | Cc1ccc(-c2nc(-c3cccc(-c4ccn[nH]4)c3)no2)s1
800 | CN1c2ccc(Cl)cc2C(=O)NC12CCN(C(=O)Nc1ccccc1)CC2
744 | O=C1C2CCCN2C(=O)c2ccccc2N1Cc1ccccc1 (centres undefined)
709 | COc1ccc(CCC(=O)NCC(C)(O)c2ccccc2)cc1 (centres undefined)
799 | O=C(Nc1cccc(F)c1)C1CC(=O)N(CCc2c[nH]c3ccc(F)cc23)C1 (centres undefined)
677 | O=C(Nc1ccc2c(c1)OCO2)C(=O)NC1CC1
666 | CCOc1ccc(NC(=O)Cn2cnc3nc(N4CCCC(C(=O)NC)C4)sc3c2=O)cc1 (centres undefined)

The next lines start with the molecule.

SMILES | RP-LC retention time [s]
CCOc1ccccc1NC(=O)N1CCC2(CC1)NC(=O)c1cc(C)ccc1N2C | 872
CCOC(=O)c1noc2nc(C)nc(NCC3CCN(Cc4ccccc4F)CC3)c12 | 595
COc1ccc(-c2noc(N3CCC(C(=O)N4CCN(C5CCCCC5)CC4)CC3)n2)cc1OC | 632
O=S(=O)(Nc1cccc(Cl)c1)c1ccc2nncn2c1 | 700
Cc1cc(Cl)ccc1NC(=O)C1CCCN(c2ncnc3c2nc2n3CCCCC2)C1 (centres undefined) | 879
COc1ccc(Cl)cc1NC(=O)CN1CCCC(COCc2ccccc2)C1 (centres undefined) | 630
Cc1cc(C)c2nc(C)cc(C(=O)NCc3ccco3)c2c1 | 698
Cc1noc(C)c1-c1ccc(S(=O)(=O)Nc2ccc(F)c(Cl)c2)cc1 | 969
COc1ccccc1NC(=O)c1ccc2nc(-c3ccccc3)cn2c1 | 725
CCOC(=O)CNC(=O)Cn1nc2n(c(=O)c1=O)CCN2c1ccccc1 | 626
O=C(NCc1ccco1)C1CCN(c2ccc(=O)n(-c3cccc(Cl)c3)n2)CC1 | 785
COc1ncccc1CNC(=O)c1ccc(C)nc1 | 562
O=C(NCCc1csc(-c2ccccc2)n1)[C@H]1CCCN1S(=O)(=O)c1cccc(Cl)c1 | 994
Cc1cccc2cc(-c3noc(C(C)C)n3)c(NCCc3ccc(S(N)(=O)=O)cc3)nc12 | 1270
COc1ccc2c(c1)C1(CCN(C(=O)Nc3ccccc3)C1)C(=O)N2 (centres undefined) | 694
CCOC(=O)c1csc(NC(=O)c2csc3nc(-c4ccc(F)cc4)cn23)n1 | 913
Cc1noc2nc(C)n(CC(=O)NC(C)CCc3ccccc3)c(=O)c12 (centres undefined) | 842
COc1ccccc1N1CCN(Cc2nc3nc(C)cc(N4CCOCC4)n3n2)CC1 | 602
COC[C@@H]1CN(Cc2ccc(F)c(Cl)c2)C[C@H]1c1nc(C)no1 | 580

SMILES | RP-LC retention time [s]
COCCC(=O)N1CCC(Oc2nccnc2N2CCc3ccccc32)C1 (centres undefined) | 797
COCCNC(=O)Cn1c(=O)n(-c2ccc(F)cc2)c2ncccc21 | 652
O=C1COc2ccccc2N1Cc1nc(-c2ccc(Cl)c(F)c2)no1 | 1120
COc1cccc2c1OC1(C)CC2C(S(=O)(=O)c2ccc(C)c(C)c2)C(=O)N1C (centres undefined) | 931
CCOCCCNC(=O)C1CCCN(c2nc3ccccc3n(Cc3ccc(C)cc3)c2=O)C1 (centres undefined) | 1080
Cc1ccc(C)c(OCc2nc(CC(=O)Nc3nc(-c4ccc(F)cc4)c(C)s3)cs2)c1 | 1310
O=C(CC1CCN(C(=O)c2ccc3oc(C4CC4)nc3c2)CC1)NC1CCCC1 | 715
O=C(c1cnccn1)N1CCCC1c1noc(CO)n1 (centres undefined) | 572
COc1ccc(NC(=O)N(Cc2nnc3n2CCCCC3)c2ccc(OC)cc2)cc1 | 631
COc1ccc(N2CCN(C(=O)C3CCCN(c4nnc(-n5cccc5)s4)C3)CC2)cc1 (centres undefined) | 829
Cc1nc2ccccc2c(=O)n1Cc1noc(-c2ccccc2Br)n1 | 871
CCN1CCN(c2cc(C(=O)O)c3cc(NS(=O)(=O)c4cc(F)ccc4F)ccc3n2)CC1 | 594
O=C(NCCOc1ccc(F)cc1)c1ccc(S(=O)(=O)N2CCCC2)cc1 | 813
CCC(=O)NCc1nc2c(n1C)CN(C(=O)c1ccccc1Br)CC2 | 505
COC(=O)c1c(-c2cccc(Cl)c2)noc1NCc1ccco1 | 1060
Cc1cccc(NC(=O)c2ccc(=O)n(C)n2)n1 | 595
Cc1ccc(-c2ccc(-n3nc(C)c(S(=O)(=O)Nc4ccc(F)cc4)c3C)nn2)cc1 | 1070
Cn1c(C2CCN(C(=O)Nc3ccccc3Br)CC2)cc(=O)n2nccc12 | 654
COc1ccc(-c2noc(C3CC(=O)N(c4ccc(F)cc4)C3)n2)c(OC)c1 (centres undefined) | 850

SMILES | RP-LC retention time [s]
Cc1cc(=O)n(CC(=O)Nc2ccc(Br)cc2F)c(N(C)Cc2ccccc2)n1 | 862
COc1ccc(Cl)cc1NC(=O)CSc1ccc(-c2ccco2)nn1 | 944
Cc1nnc(C2CC3(CCN(Cc4ccccc4)CC3)CN2CCc2ccccc2)o1 (centres undefined) | 638
CCCN1CCN(C(=O)c2csc(N3CCN(c4ccc(OC)cc4)CC3)n2)CC1 | 626
CCOc1ccccc1NC(=O)C1CCCN(c2cnc3nccnc3c2)C1 (centres undefined) | 664
O=C(Nc1cccc(F)c1)N1CCC(N2CCN(Cc3ccccc3)C(=O)C2=O)CC1 | 732
CSc1ccc(NC(=O)c2cn3c(n2)CCCC3)cc1 | 624
COc1ccc(CC(=O)N2CC(c3nc(C)no3)C3(CCOCC3)C2)cc1 (centres undefined) | 712
CCOC(=O)C1=C(CN(CC)Cc2ccccc2)NC(=O)NC1c1ccc(F)cc1 (centres undefined) | 696
Cc1ccccc1C(=O)Nc1cc(-c2cccs2)no1 | 947
CC(=O)Nc1ccc2nc(NC(=O)CCOc3ccccc3)sc2c1 | 708
CCC(=O)Nc1ccc(-n2cnc(C(=O)NCC3CC3)c2)nc1 | 660
CCNC(=O)C1CCCN(C(=O)Nc2ccc(NC(=O)Nc3ccc(F)cc3)cc2)C1 (centres undefined) | 691
CC1(C(=O)NCc2ccc(F)cc2)CCN(C(=O)Nc2ccc(F)cc2)CC1 | 804
Cc1nc(-c2cccnc2)nc2c1CCC(=O)N2CCN(C)C | 503
Cc1nc(N2CCN(c3ccccn3)CC2)c2c(C)c(C(=O)Nc3cc(F)ccc3C)sc2n1 | 733
COc1ccc(N2CCN(C(=O)c3ccc(-c4ccsc4)nc3)CC2)cc1 | 1160
O=C(Nc1ccc(C(F)(F)F)cc1)c1cnc(-c2ccccc2)nc1-c1ccncc1 | 1010
